From PMC9694334, “Synthesis and Biological Evaluation of a Fused Structure of Indolizine and Pyrrolo[1,2-c]pyrimidine: Identification of Its Potent Anticancer Activity against Liver Cancer Cells” (Pharmaceuticals, 2022)

Columns and labels:
[1] = test system: HaCaT cells; assay: Cell viability assay (MTS) in HaCaT cells; format: cell-based, human
Procedure: (§1) HepG2, Huh7, H1299, HT29, AGS and A549 cells were purchased from the Korean Cell Line Bank (Seoul, Korea) and HaCaT cells were obtained from Prof. Sohee Kwon (Yonsei University, Korea). Liver cancer cells (HepG2), human keratinocyte cells (HaCaT), and lung cancer cells (A549) were grown in DMEM high-glucose medium, liver cancer cells (Huh7) and non-small cell lung cancer cells (H1299) were grown in RPMI 1640, and gastric cancer cells (AGS) were grown in Coon’s modified F12 medium. All media were supplemented with 10% FBS, 100 Units/mL penicillin, and 100 μg/mL streptomycin. All cells were incubated at 37 °C, 5% CO2 and 95% humidity.
(§2) Cell viability assay was conducted using Cell Titer 96® AQueous One Solution Cell proliferation Assay kit (Promega, Madison, WI, USA). Five cancer cells and HaCaT cells were plated in 96-well microplates with growth medium for 24 h. When cell confluency reached ~30%, cells were treated with DMSO (vehicle) and test compounds. The medium and test compounds were replaced every 24 h. To measure cell viability, the cells were incubated with MTS solution for 1 h. The absorbance was measured by using Infinite M200 microplate reader (Tecan, Männedorf, Switzerland) at 490 nm.
(§3) Figure 2 Effect of 5r on cell viability in HepG2, Huh7, AGS, H1299, A549, HaCaT, NIH3T3, and HEK293T cells. (A–H) HepG2, Huh7, AGS, H1299, A549, HaCaT, NIH3T3, and HEK293T cells were cultured with 5r at the indicated concentrations for 72 h, and medium was replaced every 24 h with freshly added 5r. Cell viability was measured by MTS analysis (mean ± S.D., n = 5). * p < 0.05, ** p < 0.01, *** p < 0.001.

[2] = test system: caspase-3; assay: Caspase-3 activity assay in HepG2 cells; format: cell-based; conditions: 3 µM 5r for 24 h, Figure 4A
Procedure: HepG2 and Huh7 cells were plated in 96-black-well plate to about 40% confluence, and then 5r was treated for 24 h. To assess activity of caspase-3, the growth medium was changed with 100 μL of PBS containing 1 μM caspase-3 substrate, NucView 488, and incubated at room temperature. After 20 min, 1 μM Hoechst 33342 was treated to stain the cells. Activity of caspase-3 was suppressed by Ac-DEVD-CHO, a selective caspase-3 inhibitor. FLUOstar Omega microplate reader (BMG Labtech, Ortenberg, Germany) was used to assess the fluorescence of NucView 488 and Hoechst, and Lionheart FX Automated Microscope (BioTek, Winooski, VT, USA) was used to acquire the fluorescence microscopy images.
Figure 4 Effect of 5r on activity of caspase-3 and cleavage of PARP in HepG2 and Huh7 cells. (A,B) HepG2 and Huh7 cells were incubated with 3 µM 5r for 24 h and then incubated with 1 µM caspase-3 substrate (green) and 1 µM Hoechst 33,342 (blue) for 20 min before image acquisition. (C,D) Cells were cultured with 5r at the indicated concentrations for 24 h and then 1 μM caspase-3 substrate was treated for 20 min. Caspase-3 was inhibited by 20 μM Ac-DEVD-CHO (mean ± S.D., n = 3). (E,F) Cells were cultured with 5r at the indicated concentrations for 24 h, and expression level of PARP, cleaved-PARP and β-actin were measured by Western blot analysis. […]

[3] = test system: HepG2 cells; assay: Flow cytometry cell cycle analysis (propidium iodide) in HepG2 cells; format: cell-based; conditions: 3 µM 5r for 24 h
Procedure: HepG2 cells were grown to approximately 40% confluence in a 6-well plate and then 5r was treated for 24 h. After 24 h, HepG2 cells were washed out twice with PBS and centrifuged at 1000 RPM for 2 min at room temperature. The cells were stained with propidium iodide for 15 min and then cell cycle phases were measured by using FACS (Beckman Coulter, Fullerton, CA, USA).
Figure 5 Effect of 5r on cell cycle in HepG2 cells. (A,B) HepG2 cells were treated with 3 µM 5r for 24 h and then cell cycle phases were measured by propidium iodide staining, followed by flow cytometry analysis.

[4] = test system: H1299 cells; assay: Cell viability assay (MTS) in H1299 cells; format: cell-based; conditions: 72 h, MTS, Figure 2D
Procedure: as §1, §2, §3

[5] = test system: HEK293T cells; assay: Cell viability assay (MTS) in HEK293T cells; format: cell-based; conditions: 72 h, Figure 2H
Procedure: as §2, §3

[6] = test system: A549 cells; assay: Cell viability assay (MTS) in A549 cells; format: cell-based; conditions: 72 h, MTS, Figure 2E
Procedure: as §1, §2, §3

[7] = test system: HepG2 cells; assay: Combination of 5r with gemcitabine, cell viability (MTS) in HepG2 cells; format: cell-based; conditions: co-treatment with gemcitabine (0.3 μM), 72 h
Procedure: as §2
Figure 6 Combination effect of 5r and gemcitabine on cell viability in HepG2 and Huh7 cells. (A,B) HepG2 and Huh7 cells were cultured with the indicated concentrations of 5r and gemcitabine (0.3 μM) for 72 h, and medium was replaced every 24 h with freshly added 5r and gemcitabine. Cell viability was determined by MTS analysis (mean ± S.D., n = 5). ** p < 0.01, *** p < 0.001.

[8] = test system: NIH3T3 cells; assay: Cell viability assay (MTS) in NIH3T3 cells; format: cell-based; conditions: 72 h, Figure 2G
Procedure: as §2, §3

[9] = test system: AGS cells; assay: Cell viability assay (MTS) in AGS cells; format: cell-based; conditions: 72 h, MTS, Figure 2C
Procedure: as §1, §2, §3

`N#Cc1c2c3cccn3c(-c3ccccc3O)nc2n2ccccc12` [Compound 5r, 5-(2-Hydroxyphenyl)pyrrolo[1′,2′:1,6]pyrimido[5,4-b]indolizine-12-carbonitrile] was tested, and the “Effect on cell viability in non-cancerous HaCaT cells” value ([1]; 72 h, Figure 2F) was “weakly decreased cell viability”, the IC50 ([1]; Homo sapiens, mean, n = 5) was 6.91 µM and the “Caspase-3 activity in HepG2 cells” value [2] was “potently increased caspase-3 activity”. The “Ratio in the G2/M phase” value [3] was “did not affect”, the “Sub-G1 (apoptotic peak) phase ratio” value ([3]; control 24.1%) was 56.9% and the G0/G1 phase ratio ([3]; control 64.6%) was 29.3%. The “Effect on cell viability in H1299 cells” value [4] was “weak effect”, the “Effect on cell viability in non-cancerous HEK293T cells” value [5] was “weakly decreased cell viability” and the “Effect on cell viability in A549 cells” value [6] was “weak effect”. The “Combination effect with gemcitabine on cell viability in HepG2 cells” value [7] was “additional effect rather than a synergistic effect”, the “Effect on cell viability in non-cancerous NIH3T3 cells” value [8] was “weakly decreased cell viability” and the “Effect on cell viability in AGS cells” value [9] was “weak effect”.
